In patent publication US8481547B2, “Substituted benzothiazole and benzoxazole derivatives useful as inhibitors of DPP-1” (Janssen Pharmaceutica NV, priority 2009, dated 2013):
Where a name gives a salt, the structure may show the parent alone.

What follows are compounds tested against T1, recombinant human DPP-1 (Cathepsin C) (Homo sapiens, UniProt P53634) (assay: DPP-1 Inhibition Assay (In Vitro)). Conditions: fluorogenic substrate GR-AMC 10 uM, 0.15 nM DPP-1, pH 7.0, room temperature; average value where tested multiple times.
T1 construct: made in house
T1 sequence (P53634 25-463): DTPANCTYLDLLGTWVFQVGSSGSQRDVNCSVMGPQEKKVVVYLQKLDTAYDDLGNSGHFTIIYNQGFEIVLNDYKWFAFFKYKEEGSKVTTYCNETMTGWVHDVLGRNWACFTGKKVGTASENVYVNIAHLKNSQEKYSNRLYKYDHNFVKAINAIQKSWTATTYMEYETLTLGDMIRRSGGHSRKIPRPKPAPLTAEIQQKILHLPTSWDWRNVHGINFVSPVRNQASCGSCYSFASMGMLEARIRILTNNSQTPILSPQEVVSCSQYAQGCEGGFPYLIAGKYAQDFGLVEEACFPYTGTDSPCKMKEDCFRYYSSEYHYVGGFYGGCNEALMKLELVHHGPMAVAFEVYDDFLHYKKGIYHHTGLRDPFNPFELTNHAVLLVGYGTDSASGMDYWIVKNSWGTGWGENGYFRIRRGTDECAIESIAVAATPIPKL
Format: biochemical
Procedure: Test compounds were assessed for DPP-1 (Cathepsin C) inhibitory activity using a fluorogenic substrate, GR-AMC (Glycine-Arginine-amino-4-methylcoumarin, Bachem, 1-1215). The amount of amino-methylcoumarin released is proportional to the DPP-1 activity, and the reaction is monitored kinetically with a Molecular Devices plate reader using black 96-well plates.
All compounds were tested under room temperature conditions. The assay buffer consisted of 50 mM HEPES, pH 7.0, 100 mM NaCl, 2 mM glutathione (GSH), and 0.002% TWEEN 20. GSH and TWEEN 20 were added to the buffer fresh daily. Just prior to use, an in-house preparation of recombinant human DPP-1 (240 μM stock, MW 49.6 kD) was diluted 600-fold in assay buffer containing fresh 2 mM dithiothreitol (DTT) to activate the enzyme, then diluted into assay buffer (without DTT) 133-fold for a DPP-1 working solution of 3 nM. Test compounds were diluted in DMSO for 20× their final assay concentrations.
Additions to a 96-well black Costar 3915 plates were as follows: 90 μL of 11 μM GR-AMC, 5 μL test compound (followed by mixing), and 5 μL 3 nM DPP1 to start the reaction. Fluorescent reactions were monitored kinetically at 360 nm excitation, 440 nm emission on a Molecular Devices Spectramax XPS reader. The Softmax Pro software of the reader determined the initial velocity of the selected data (the first 3-5 minutes of the reaction), and the best linear regression fit of the initial kinetic data. Final assay conditions were 0.15 nM DPP-1, 10 uM GR-AMC, 50 mM HEPES, pH 7.0, 100 mM NaCl, 2 mM GSH, 0.002% TWEEN 20, 1 μM DTT, 5.0% DMSO. Initial velocity rates were plotted vs. test compound concentration by use of a four-parameter logistics equation (nonlinear regression, sigmoidal dose-response (variable slope), with fixed Hill (1.0) using GraphPad Prism® software for determination of DPP-1 IC50. Within-run assay coefficient of variation (CV) was generally <10%; between-run CV<20%.
Representative compounds of the present invention were tested according to the procedure as described above, with results as listed in Table 3, below.

Row | SMILES | IC50
1 | N[C@@H](Cc1cccs1)C(=O)N1CCN(c2nc3ccccc3s2)CC1 [Compound 1] | 3.5 µM
2 | N[C@@H](Cc1cccs1)C(=O)N1CCN(c2nc3ccccc3o2)CC1 [Compound 2, (S)-2-amino-1-(4-(benzo[d]oxazol-2-yl)piperazin-1-yl)-3-(thiophen-2-yl)propan-1-one hydrochloride] | 1.4 µM
3 | COc1ccc(NC(=O)c2ccc3nc(N4CCN(C(=O)[C@@H](N)Cc5cccs5)CC4)sc3c2)cc1OC [Compound 3, (S)-2-(4-(2-amino-3-(thiophen-2-yl)propanoyl)piperazin-1-yl)-N-(3,4-dimethoxyphenyl)benzo[d]thiazole-6-carboxamide hydrochloride] | 0.17 µM
4 | CC[C@H](N)C(=O)N1CCN(c2nc3ccc(C(=O)Nc4ccc(OC)c(OC)c4)cc3s2)CC1 [Compound 4, (S)-2-(4-(2-aminobutanoyl)piperazin-1-yl)-N-(3,4-dimethoxyphenyl)benzo[d]thiazole-6-carboxamide hydrochloride] | 3 µM
5 | N[C@@H](Cc1cccs1)C(=O)N1CCN(c2nc3ccc(Br)cc3s2)CC1 [Compound 5] | 1.3 µM
6 | COc1ccc(NC(=O)c2ccc3nc(N4CCN(C(=O)[C@@H](N)Cc5ccco5)CC4)sc3c2)cc1OC [Compound 6] | 2.1 µM
7 | Cc1ccc(-c2ccc3nc(N4CCN(C(=O)[C@@H](N)Cc5cccs5)CC4)sc3c2)cc1 [Compound 8] | 1.1 µM
8 | N[C@@H](Cc1cccs1)C(=O)N1CCN(c2nc3ccc(-c4ccc(F)c(F)c4)cc3s2)CC1 [Compound 11] | 0.97 µM
9 | COc1ccc(NC(=O)c2ccc3nc(N4CCN(C(=O)[C@@H](N)Cc5ccsc5)CC4)sc3c2)cc1OC [Compound 12] | 5.6 µM
10 | N[C@@H](Cc1cccs1)C(=O)N1CCN(c2nc3ccc(-c4cccnc4)cc3s2)CC1 [Compound 13] | 0.37 µM
11 | N[C@@H](Cc1cccs1)C(=O)N1CCN(c2nc3ccc(-c4ccc(C(F)(F)F)cc4)cc3s2)CC1 [Compound 14, (S)-2-amino-3-(thiophen-2-yl)-1-(4-(6-(4-(trifluoromethyl)phenyl)benzo[d]thiazol-2-yl)piperazin-1-yl)propan-1-one] | 1.3 µM
12 | N[C@@H](Cc1cccs1)C(=O)N1CCN(c2nc3ccc(-c4ccc(O)cc4)cc3s2)CC1 [Compound 15] | 0.22 µM
13 | N[C@@H](Cc1cccs1)C(=O)N1CCN(c2nc3ccc(-c4ccccc4F)cc3s2)CC1 [Compound 16] | 0.58 µM
14 | N[C@@H](Cc1cccs1)C(=O)N1CCN(c2nc3ccc(CO)cc3s2)CC1 [Compound 18, (S)-2-amino-1-(4-(6-(hydroxymethyl)benzo[d]thiazol-2-yl)piperazin-1-yl)-3-(thiophen-2-yl)propan-1-one] | 0.76 µM
15 | N[C@@H](Cc1cccs1)C(=O)N1CCN(c2nc3ccc(C(=O)NC4CCCC4)cc3s2)CC1 [Compound 19, (S)-2-(4-(2-amino-3-(thiophen-2-yl)propanoyl)piperazin-1-yl)-N-cyclopentylbenzo[d]thiazole-6-carboxamide] | 0.87 µM
16 | N[C@@H](Cc1cccs1)C(=O)N1CCN(c2nc3ccc(C(=O)Nc4ccc(F)cc4)cc3s2)CC1 [Compound 20] | 0.56 µM

Row | SMILES | IC50
17 | N[C@@H](Cc1cccs1)C(=O)N1CCN(c2nc3ccc(CNC4CCCC4)cc3s2)CC1 [Compound 21, (S)-2-amino-1-(4-(6-((cyclopentylamino)methyl)benzo[d]thiazol-2-yl)piperazin-1-yl)-3-(thiophen-2-yl)propan-1-one] | 0.52 µM
18 | CCCCNC(=O)c1ccc2nc(N3CCN(C(=O)[C@@H](N)Cc4cccs4)CC3)sc2c1 [Compound 24] | 0.82 µM
19 | N[C@@H](Cc1cccs1)C(=O)N1CCN(c2nc3ccc(C(=O)O)cc3s2)CC1 [Compound 26] | 9.6 µM
20 | CN(C)C(=O)c1ccc2nc(N3CCN(C(=O)[C@@H](N)Cc4cccs4)CC3)sc2c1 [Compound 27] | 2.2 µM
21 | CCOc1ccc(NC(=O)c2ccc3nc(N4CCN(C(=O)[C@@H](N)Cc5cccs5)CC4)sc3c2)cc1 [Compound 28] | 1.2 µM
22 | CCCNC(=O)c1ccc2nc(N3CCN(C(=O)[C@@H](N)Cc4cccs4)CC3)sc2c1 [Compound 29] | 2.1 µM
23 | N[C@@H](Cc1cccs1)C(=O)N1CCN(c2nc3ccc(C(=O)NC4CCCCC4)cc3s2)CC1 [Compound 30] | 2.3 µM
24 | COc1cccc(CNC(=O)c2ccc3nc(N4CCN(C(=O)[C@@H](N)Cc5cccs5)CC4)sc3c2)c1 [Compound 31] | 1.2 µM
25 | CC[C@H](N)C(=O)NCCNc1nc2ccccc2s1 [Compound 41, (S)-2-amino-N-(2-(benzo[d]thiazol-2-ylamino)ethyl)butanamide hydrochloride] | 18 µM
26 | C#CC[C@H](N)C(=O)NCCNc1nc2ccccc2s1 [Compound 42] | 4.7 µM
27 | CC[C@H](N)C(=O)NCCNc1nc2ccc(OC)cc2s1 [Compound 43, (S)-2-amino-N-(2-(6-methoxybenzo[d]thiazol-2-ylamino)ethyl)butanamide hydrochloride] | 12 µM
28 | C#CC[C@H](N)C(=O)NCCNc1nc2ccccc2o1 [Compound 44, (S)-2-amino-N-(2-(benzo[d]oxazol-2-ylamino)ethyl)pent-4-ynamide hydrochloride] | 3.1 µM
29 | CC[C@H](N)C(=O)NCCNc1nc2ccccc2o1 [Compound 45] | ~8 µM
30 | N[C@@H](Cc1cccs1)C(=O)NCCNc1nc2ccccc2s1 [Compound 46, (S)-2-amino-N-(2-(benzo[d]thiazol-2-ylamino)ethyl)-3-(thiophen-2-yl)propanamide hydrochloride] | 0.74 µM
31 | N[C@@H](Cc1cccs1)C(=O)NCCNc1nc2ccccc2o1 [Compound 47] | 0.7 µM
32 | COc1ccc(NC(=O)c2ccc3nc(NCCN(C)C(=O)[C@@H](N)Cc4cccs4)sc3c2)cc1OC [Compound 48, (S)-2-(2-(2-amino-N-methyl-3-(thiophen-2-yl)propanamido)ethylamino)-N-(3,4-dimethoxyphenyl)benzo[d]thiazole-6-carboxamide] | 0.2 µM
